Laboratory results: article PMC3397443, “Sinularones A–I, New Cyclopentenone and Butenolide Derivatives from a Marine Soft Coral Sinularia sp. and Their Antifouling Activity” (Marine Drugs, 2012)
≈ marks a conversion by molar mass, not a printed value. Where two headings read alike, the source gives them in different places.

Legend:
[1] = Toxicity against barnacle larvae (LC50); conditions: Balanus amphitrite (barnacle), in vivo; concentration required to kill 50% of larvae of a tested population
Procedure: (§1) All compounds were tested for their cytotoxicity against a panel of tumor cell lines including human ovarian carcinoma A2780, human lung adenocarcinoma A549, human gastric carcinoma BGC823, human hepatoma Bel7402, and human colonic carcinoma HCT-8. […] In order to detect whether these compounds play a role for ecological functions, the test for antifouling activity against the larvae of the barnacle Balanus amphitrite was performed. […] A primary discussion of structure-activity relationship implied that α,β-unsaturated 2,3-dimethyl-γ-lactone is a functional unit for anti-barnacle.
(§2) Adults of the barnacle Balanus amphitrite Darwin were exposed to air for more than 6 h, and then were placed in a container filled with fresh 0.22 µm filtered sea water (FSW) to release nauplii. The collected nauplii were reared to cyprid stage according to the method described by Thiyagarajan et al.. When kept at 26–28 °C and fed with Chaetoceros gracilis, larvae developed to cyprids within four days. Fresh cyprids were used in the tests.

[2] = tested on: larvae of the barnacle Balanus amphitrite; experiment: Larval settlement bioassay (antifouling activity); assay type: in vivo; conditions: for EC50: Amphibalanus amphitrite, read-out: Balanus amphitrite Larvae EC50
Procedure: as §1, §2

[3] = concentration where 50% of larval population was inhibited to settle compared to control, cyprids

| SMILES | LC50 [1] [µg/mL] | EC50 [2, 3] [µg/mL] | EC50 [2] [µg/mL] | antifouling activity (in words) ([2]; against the barnacle Balanus amphitrite) |
| --- | --- | --- | --- | --- |
| CCOC(=O)CCCCCCCCCCCC[C@]1(O)OC(=O)C(C)=C1C [Compound 9, Sinularone I] | > 50 | 12.6 (≈ 34.1 µM) | – | – |
| CCCCC[C@@]1(O)C(C)=C(C)C(=O)[C@H]1CC(=O)OCC [Compound 2, Sinularone B] | > 50 | 23.5 (≈ 83.2 µM) | – | – |
| CCOC(=O)CC[C@]1(O)OC(=O)C(C)=C1C [Compound 7, Sinularone G] | > 50 | 18.6 (≈ 81.7 µM) | – | – |
| CCO[C@@]1(CCC(=O)OC)OC(=O)C(C)=C1C [Compound 8, Sinularone H] | > 50 | 21.4 (≈ 88.3 µM) | – | – |
| CC(=O)CC/C=C(/C)C[C@@H]1CC(C)(C)CC1=O [Compound 1, Sinularone A] | > 50 | 13.9 (≈ 58.6 µM) | – | – |
| CCCCC[C@]1(O)OC(=O)C(C)=C1C [Compound 10, (S)-4-hydroxy-2,3-dimethyl-4-pentyl-γ-lactone] | > 50 | – | 3.84 (≈ 19.4 µM) | the most active |
